What was measured:
[1] = Total body clearance at an intravenous dose of 5.2 mg/kg in rat; type: ADME, organism-based; parameters: dose 5.2 mg/kg, route intravenous; details: in vivo
[2] = Maximum concentration at an intraduodenal dose of 5.2 mg/kg in rat; type: ADME, organism-based; parameters: dose 5.2 mg/kg, route intraduodenal; details: in vivo
Mus musculus = test: Maximal response at 1 nmol/kg peroral dose; type: functional
[3] = Oral bioavailability in Long-Evans rats at an intraduodenal dose of 5.2 mg/kg; type: ADME, organism-based; details: rat, in vivo, other: intraduodenal
[4] = Maximum concentration at an intravenous dose of 5.2 mg/kg; type: ADME, organism-based; parameters: dose 5.2 mg/kg, route intravenous; details: rat, in vivo
[5] = Half life period at an intravenous dose of 5.2 mg/kg in rat; type: ADME, organism-based; parameters: dose 5.2 mg/kg, route intravenous; details: in vivo
[6] = Oral bioavailability in Long-Evans rats at an intravenous dose of 5.2 mg/kg; Not active; type: ADME, organism-based; details: rat, in vivo
[7] = Volume of distribution at steady state at an intravenous dose of 5.2 mg/kg in rat; type: ADME, organism-based; parameters: dose 5.2 mg/kg, route intravenous; details: in vivo, read-out: Vss

COc1ccc(N(C(=O)CN2C(=O)C(C)(Cc3n[nH]c4ccccc34)C(=O)N(c3ccccc3)c3ccccc32)C(C)C)cc1 (stereo not drawn)
clearance [1]: 30 mL/min/kg
Cmax [2]: 30 ng/mL
Max (Mus musculus): 28%
bioavailability [3]: 15%
Cmax [4]: 3390 ng/mL
half-life [5]: 3.9 h
F [6]: Not Active
Vd [7]: 4.31 L/kg
